From patent US9724506B2, “Nanopillar electrode devices and methods of recording action potentials” (The Board of Trustees of the Leland Stanford Junior …, priority 2013, dated 2017)
Where “and” joins values, the source holds several entries; their conditions need not be identical. Equal values may be shown once.

Tested on: HL-1 cells
Experiment: Nanopillar electrode intracellular recording of HL-1 action potentials after electroporation, before and after ion-channel drug
Format: cell-based, mouse
Conditions: for APD50 after drug: 10 min incubation, 4 different HL-1 cells in 3 cultures, same cell recorded before and after drug; for APD50 change (%): APD50 after drug versus before drug on the same HL-1 cell
Protocol: The HL-1 cardiomyocyte cell line was obtained from the laboratory of William C. Claycomb at Louisiana State University. Before plating, the nanopillar electrode device was cleaned with detergent and deionized water, followed by 5 minutes of oxygen plasma treatment. The culture chamber was coated with 5 Δg ml^−1 fibronectin in 0.02% gelatin solution overnight to facilitate cell attachment (Claycomb et al. (1998) Proc. Natl. Acad. Sci. USA 95:2979-2984). HL-1 cells were then plated inside the chamber at a density of ˜1×10^5 cm^−2 and were maintained in the Claycomb medium supplemented with 10% fetal bovine serum, 0.1 mM norepinephrine, 2 mM L-glutamine and 100 U ml^−1 penicillin and 100 Δg ml^−1 streptomycin. The cells were maintained in a standard incubator at 37° C. and 5% CO2. Medium was changed every 24 hours. […] Fluorescent imaging of calcein dye was performed with a 470 nm excitation filter and a 525 nm emission filter.
A 60-channel voltage amplifier system (Multichannel System, MEA1060) was used to record HL-1 cells cultured on the nanopillar electrode arrays (nine nanopillars per array) after the cells started beating. Recording was performed in the same culture medium at 37° C. with an Ag/AgCl electrode in the medium as the reference electrode. The amplification was typically 110× for intracellular recording or 1,100× for extracellular recording, and the sampling rate was 5-20 kHz. The signal was filtered with a band-pass of 1 Hz-5 kHz. For electroporation, 20 biphasic pulses of 2.5 Vamp were applied to a nanopillar electrode in a total time of 1 second. The recording system was blanked during the electroporation period. Electrophysiology recordings were resumed 20-40 seconds after electroporation to avoid amplifier saturation.
For control experiments, we electroporated the cells to record action potentials in the absence of drugs. After the cells had recovered for a few hours, nifedipine or tetraethyl-ammonium of different concentrations was added to the culture medium and the cultures incubated for 10 minutes. Subsequently, another electroporation was applied to record the action potentials of the drug-treated cells.

[1] = 10 mM tetraethylammonium, HL-1 cells, versus control recording without drug (FIG. 5)

SMILES | APD50 after drug (100 nM nifedepine) | APD50 change (%) (100 nM nifedepine) | APD50 after drug (1 mM tetraethylammonium) | APD50 change (%) (1 mM tetraethylammonium) | APD50 [1] | action potential period [1] | APD50 relative to the control (FIG. 5c, four different HL-1 cells on three different cultures per drug)
COC(=O)C1=C(C)NC(C)=C(C(=O)OC)C1c1ccccc1[N+](=O)[O-] [nifedipine] | 41.52 ms and 43.40 ms and 40.92 ms and 33.39 ms | 93.8% and 93.6% and 94.0% and 92.9% |  |  |  |  | 
CC[N+](CC)(CC)CC [tetraethylammonium] |  |  | 50.54 ms and 45.74 ms and 48.78 ms and 54.93 ms | 109.9% and 110.5% and 111.1% and 109.8% | increasing APD50 | decreasing the period | increase
